Laboratory results published in PubChem BioAssay (NCI).
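GI50 = concentration required for 50% inhibition of growth. TGI marks complete inhibition of growth.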

Legend:
Assay in all cases: NCI tumour cell line growth inhibition, 384-well format
COLO 205 colon = system: COLO 205 colon
TK-10 renal = system: TK-10 renal
SR leukemia = system: SR leukemia
MDA-MB-435 melanoma = system: MDA-MB-435 melanoma
K-562 leukemia = system: K-562 leukemia
MDA-MB-231 breast = system: MDA-MB-231 breast
EKVX NSCLC = system: EKVX NSCLC
UACC-62 melanoma = system: UACC-62 melanoma
HOP-62 NSCLC = system: HOP-62 NSCLC
LOX IMVI melanoma = system: LOX IMVI melanoma
SN12C renal = system: SN12C renal
A549 NSCLC = system: A549 NSCLC
SF-268 CNS = system: SF-268 CNS

## NC1(c2ccc(-c3nc4ccn5c(=O)[nH]nc5c4cc3-c3ccccc3)cc2)CCC1
COLO 205 colon
  GI50: 0.712 µM
  TGI: 2.65 µM
TK-10 renal
  GI50: 1.34 µM
  TGI: 3.9 µM
SR leukemia
  GI50: 1.14 µM
  TGI: 2.36 µM
MDA-MB-435 melanoma
  GI50: 2.36 µM
  TGI: 7.21 µM
K-562 leukemia
  GI50: 1.59 µM
  TGI: 3.03 µM
MDA-MB-231 breast
  GI50: 2.49 µM
  TGI: 6.52 µM
EKVX NSCLC
  GI50: 1.62 µM
  TGI: 5.92 µM
UACC-62 melanoma
  GI50: 1.45 µM
  TGI: 5.45 µM
HOP-62 NSCLC
  GI50: 2.68 µM
  TGI: 7.93 µM
LOX IMVI melanoma
  GI50: 1.58 µM
  TGI: 2.95 µM
SN12C renal
  GI50: 4.04 µM
  TGI: 16.3 µM
A549 NSCLC
  GI50: 2.05 µM
  TGI: 9.34 µM
SF-268 CNS
  GI50: 2.73 µM
  TGI: 7.37 µM
